# Reference: ChEMBL document CHEMBL1201861, “Genomics of Drug Sensitity in Cancer screening data, Wellcome Trust Sanger Institute”
# Experiments:
# COR-L23 = experiment: cells; type: functional, cell-based; details: Homo sapiens;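 also: cell viability assay measuring how strongly compounds suppress growth of COR-L23 cells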
# Description: SANGER: Inhibition of human COR-L23 cell growth in a cell viability assay.
# COR-L279 = experiment: SANGER: Inhibition of human COR-L279 cell growth in a cell viability assay.; type: functional, cell-based
# ChaGo-K-1 = experiment: cells; type: functional, cell-based; details: Homo sapiens;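 also: growth inhibition of ChaGo-K-1 cells, read out with a cell viability assay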
# Description: SANGER: Inhibition of human ChaGo-K-1 cell growth in a cell viability assay.
# DU-145 = experiment: cells; type: functional, cell-based; details: Homo sapiens
# Description: SANGER: Inhibition of human DU-145 cell growth in a cell viability assay.
# EFM-19 = experiment: cells; type: functional, cell-based; details: Homo sapiens;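 also: growth inhibition of human EFM-19 cells, measured in a cell viability assay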
# Description: SANGER: Inhibition of human EFM-19 cell growth in a cell viability assay.
# EFO-27 = experiment: cells; type: functional, cell-based; details: Homo sapiens;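 also: growth inhibition of EFO-27 cells, read out with a cell viability assay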
# Description: SANGER: Inhibition of human EFO-27 cell growth in a cell viability assay.
# G-401 = experiment: cells; type: functional, cell-based; details: Homo sapiens
# Description: SANGER: Inhibition of human G-401 cell growth in a cell viability assay.
# GCT = experiment: cells; type: functional, cell-based; details: Homo sapiens;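 also: GCT cell line proliferation inhibition, read out with a cell viability assay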
# Description: SANGER: Inhibition of human GCT cell growth in a cell viability assay.
# GMS-10 = experiment: cells; type: functional, cell-based; details: Homo sapiens;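 also: growth inhibition of GMS-10 cells, read out as cell viability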
# Description: SANGER: Inhibition of human GMS-10 cell growth in a cell viability assay.
# H4 = experiment: cells; type: functional, cell-based; details: Homo sapiens
# Description: SANGER: Inhibition of human H4 cell growth in a cell viability assay.
# HCC1419 = experiment: cells; type: functional, cell-based; details: Homo sapiens;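 also: growth inhibition of human HCC1419 cells, read out as cell viability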
# Description: SANGER: Inhibition of human HCC1419 cell growth in a cell viability assay.
# HCT-116 = experiment: cells; type: functional, cell-based; details: Homo sapiens
# Description: SANGER: Inhibition of human HCT-116 cell growth in a cell viability assay.
# HCT-15 = experiment: cells; type: functional, cell-based; details: Homo sapiens;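 also: cell viability readout, IC50 reflecting suppression of HCT-15 cell growth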
# Description: SANGER: Inhibition of human HCT-15 cell growth in a cell viability assay.
# HOP-92 = experiment: cells; type: functional, cell-based; details: Homo sapiens;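 also: cell viability readout, with IC50 reflecting inhibition of HOP-92 cell growth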
# Description: SANGER: Inhibition of human HOP-92 cell growth in a cell viability assay.
# HT-3 = experiment: cells; type: functional, cell-based; details: Homo sapiens;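 also: growth inhibition measured with a cell viability readout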
# Description: SANGER: Inhibition of human HT-3 cell growth in a cell viability assay.
# HuO-3N1 = experiment: cells; type: functional, cell-based; details: Homo sapiens;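 also: cell viability readout used to measure how strongly compounds suppress proliferation of human HuO-3N1 cells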
# Description: SANGER: Inhibition of human HuO-3N1 cell growth in a cell viability assay.
# IMR-5 = experiment: cells; type: functional, cell-based; details: Homo sapiens;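 also: growth inhibition of human IMR-5 cells, read out with a cell viability assay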
# Description: SANGER: Inhibition of human IMR-5 cell growth in a cell viability assay.
# KYSE-410 = experiment: cells; type: functional, cell-based; details: Homo sapiens;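 also: growth inhibition of KYSE-410 cells, measured through a cell viability readout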
# Description: SANGER: Inhibition of human KYSE-410 cell growth in a cell viability assay.
# MDA-MB-361 = experiment: cells; type: functional, cell-based; details: Homo sapiens
# ME-180 = experiment: cells; type: functional, cell-based; details: Homo sapiens;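 also: cell viability assay measuring growth inhibition of ME-180 cells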
# Description: SANGER: Inhibition of human ME-180 cell growth in a cell viability assay.
# MEL-HO = experiment: cells; type: functional, cell-based; details: Homo sapiens
# Description: SANGER: Inhibition of human MEL-HO cell growth in a cell viability assay.
# MHH-CALL-2 = experiment: cells; type: functional, cell-based; details: Homo sapiens;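 also: growth inhibition of the cell line, read out in a cell viability assay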
# Description: SANGER: Inhibition of human MHH-CALL-2 cell growth in a cell viability assay.
# MKN-1 = experiment: cells; type: functional, cell-based; details: Homo sapiens;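 also: growth inhibition of human MKN1 cells, read out by a cell viability measurement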
# Description: SANGER: Inhibition of human MKN1 cell growth in a cell viability assay.
# NB1 = experiment: cells; type: functional, cell-based; details: Homo sapiens;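 also: reduction of NB1 cell proliferation, read out with a viability assay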
# Description: SANGER: Inhibition of human NB1 cell growth in a cell viability assay.
# NCI-H2052 = experiment: cells; type: functional, cell-based; details: Homo sapiens;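 also: growth inhibition of NCI-H2052 cells, read out with a cell viability assay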
# Description: SANGER: Inhibition of human NCI-H2052 cell growth in a cell viability assay.
# NCI-H2081 = experiment: cells; type: functional, cell-based; details: Homo sapiens;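 also: growth inhibition of human NCI-H2081 cells, read out with a cell viability assay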
# Description: SANGER: Inhibition of human NCI-H2081 cell growth in a cell viability assay.
# NCI-H2196 = experiment: cells; type: functional, cell-based; details: Homo sapiens;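 also: cell viability assay used as the readout of growth inhibition in NCI-H2196 cells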
# Description: SANGER: Inhibition of human NCI-H2196 cell growth in a cell viability assay.
# NCI-H2342 = experiment: cells; type: functional, cell-based; details: Homo sapiens;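 also: growth inhibition of the cancer cell line, determined with a cell viability assay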
# Description: SANGER: Inhibition of human NCI-H2342 cell growth in a cell viability assay.
# NCI-H28 = experiment: cells; type: functional, cell-based; details: Homo sapiens;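 also: growth inhibition of human NCI-H28 cells, read out as cell viability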
# Description: SANGER: Inhibition of human NCI-H28 cell growth in a cell viability assay.
# NCI-H292 = experiment: cells; type: functional, cell-based; details: Homo sapiens;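 also: growth inhibition of NCI-H292 cells, read out with a cell viability assay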
# Description: SANGER: Inhibition of human NCI-H292 cell growth in a cell viability assay.
# NCI-H524 = experiment: cells; type: functional, cell-based; details: Homo sapiens;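 also: growth inhibition of human NCI-H524 cells, read out through a cell viability assay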
# Description: SANGER: Inhibition of human NCI-H524 cell growth in a cell viability assay.
# NCI-H716 = experiment: cells; type: functional, cell-based; details: Homo sapiens;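 also: growth inhibition of human NCI-H716 cells, measured by a cell viability assay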
# Description: SANGER: Inhibition of human NCI-H716 cell growth in a cell viability assay.
# NCI-H810 = experiment: cells; type: functional, cell-based; details: Homo sapiens;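 also: IC50 reflects inhibition of cancer cell line growth, read out with a cell viability assay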
# Description: SANGER: Inhibition of human NCI-H810 cell growth in a cell viability assay.
# SNU-16 = experiment: cells; type: functional, cell-based; details: Homo sapiens;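 also: growth inhibition of human SNU-16 cells, determined with a cell viability readout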
# Description: SANGER: Inhibition of human NCI-SNU-16 cell growth in a cell viability assay.
# PANC-08-13 = experiment: cells; type: functional, cell-based; details: Homo sapiens
# Description: SANGER: Inhibition of human PANC-08-13 cell growth in a cell viability assay.
# RO82-W-1 = experiment: cells; type: functional, cell-based; details: Homo sapiens;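 also: growth inhibition of human RO82-W-1 cells, measured with a cell viability assay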
# Description: SANGER: Inhibition of human RO82-W-1 cell growth in a cell viability assay.
# RPMI 8402 = experiment: SANGER: Inhibition of human RPMI-8402 cell growth in a cell viability assay.; type: functional, cell-based
# RT-112 = experiment: cells; type: functional, cell-based; details: Homo sapiens
# Description: SANGER: Inhibition of human RT-112 cell growth in a cell viability assay.
# SCC-9 = experiment: cells; type: functional, cell-based; details: Homo sapiens;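 also: Read-out is a cell viability assay, with values giving inhibition of cell growth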
# Description: SANGER: Inhibition of human SCC-9 cell growth in a cell viability assay.
# SF-295 = experiment: cells; type: functional, cell-based; details: Homo sapiens;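 also: growth inhibition of SF-295 cells, read out with a cell viability assay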
# Description: SANGER: Inhibition of human SF295 cell growth in a cell viability assay.
# SK-MEL-28 = experiment: cells; type: functional, cell-based; details: Homo sapiens;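 also: growth inhibition of human SK-MEL-28 cells, read out with a cell viability assay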
# Description: SANGER: Inhibition of human SK-MEL-28 cell growth in a cell viability assay.
# SK-MEL3 = experiment: cells; type: functional, cell-based, SK-MEL-3; details: Homo sapiens;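 also: growth inhibition of human SK-MEL-3 cells, read out with a cell viability assay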
# Description: SANGER: Inhibition of human SK-MEL-3 cell growth in a cell viability assay.
# ST486 = experiment: SANGER: Inhibition of human ST486 cell growth in a cell viability assay.; type: functional, cell-based
# SUP-T1 = experiment: cells; type: functional, cell-based; details: Homo sapiens;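 also: growth inhibition of human SUP-T1 cells, read out as cell viability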
# Description: SANGER: Inhibition of human SUP-T1 cell growth in a cell viability assay.
# SW1088 = experiment: cells; type: functional, cell-based; details: Homo sapiens;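 also: growth inhibition of human SW1088 cells, read out by a cell viability assay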
# Description: SANGER: Inhibition of human SW1088 cell growth in a cell viability assay.
# SW48 = experiment: cells; type: functional, cell-based; details: Homo sapiens;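 also: growth inhibition of SW48 cells, read out with a cell viability assay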
# Description: SANGER: Inhibition of human SW48 cell growth in a cell viability assay.
# SW626 = experiment: cells; type: functional, cell-based; details: Homo sapiens;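 also: growth inhibition of SW626 cells, measured with a cell viability assay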
# Description: SANGER: Inhibition of human SW626 cell growth in a cell viability assay.
# SW756 = experiment: cells; type: functional, cell-based; details: Homo sapiens;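 also: growth inhibition of human SW756 cells, read out with a cell viability assay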
# Description: SANGER: Inhibition of human SW756 cell growth in a cell viability assay.
# SW780 = experiment: cells; type: functional, cell-based; details: Homo sapiens;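 also: growth inhibition of the cells, read out with a cell viability assay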
# Description: SANGER: Inhibition of human SW780 cell growth in a cell viability assay.
# SW837 = experiment: cells; type: functional, cell-based; details: Homo sapiens;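 also: growth inhibition of SW837 cells, determined with a cell viability assay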
# Description: SANGER: Inhibition of human SW837 cell growth in a cell viability assay.
# 8505C = experiment: cells; type: functional, cell-based; details: Homo sapiens
# Description: SANGER: Inhibition of human 8505C cell growth in a cell viability assay.
# A253 cell line = experiment: cells; type: functional, cell-based; details: Homo sapiens;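 also: growth inhibition of A253 cells, read out with a cell viability assay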
# Description: SANGER: Inhibition of human A253 cell growth in a cell viability assay.
# BC1 cell line = experiment: SANGER: Inhibition of human BC-1 cell growth in a cell viability assay.; type: functional, cell-based
# BPH-1 = experiment: cells; type: functional, cell-based; details: Homo sapiens;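 also: cell viability assay measuring growth inhibition of human BPH-1 cells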
# Description: SANGER: Inhibition of human BPH-1 cell growth in a cell viability assay.
# CA46 = experiment: cells; type: functional, cell-based; details: Homo sapiens;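 also: growth inhibition of human CA46 cells, read out by a cell viability assay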
# Description: SANGER: Inhibition of human CA46 cell growth in a cell viability assay.
# CAL-148 = experiment: cells; type: functional, cell-based; details: Homo sapiens
# Description: SANGER: Inhibition of human CAL-148 cell growth in a cell viability assay.
# CAL-27 = experiment: cells; type: functional, cell-based; details: Homo sapiens;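 also: Viability-based readout, IC50 reflecting inhibition of CAL-27 cell growth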
# Description: SANGER: Inhibition of human CAL-27 cell growth in a cell viability assay.
# TE-441-T = experiment: cells; type: functional, cell-based; details: Homo sapiens
# Description: SANGER: Inhibition of human TE-441-T cell growth in a cell viability assay.
# U2OS = experiment: cells; type: functional, cell-based, U-2-OS; details: Homo sapiens;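 also: growth inhibition of human U-2-OS cells, determined with a cell viability assay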
# Description: SANGER: Inhibition of human U-2-OS cell growth in a cell viability assay.
# UACC-62 = experiment: cells; type: functional, cell-based; details: Homo sapiens;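 also: growth inhibition of human UACC-62 cells, read out by a cell viability assay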
# Description: SANGER: Inhibition of human UACC-62 cell growth in a cell viability assay.
# UMUC3 = experiment: cells; type: functional, cell-based; details: Homo sapiens;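 also: growth inhibition of human UM-UC-3 cells, read out with a cell viability assay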
# Description: SANGER: Inhibition of human UM-UC-3 cell growth in a cell viability assay.
# YKG-1 = experiment: cells; type: functional, cell-based; details: Homo sapiens;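 also: cell growth inhibition, read out with a viability assay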
# Description: SANGER: Inhibition of human YKG-1 cell growth in a cell viability assay.
# CESS = experiment: SANGER: Inhibition of human CESS cell growth in a cell viability assay.; type: functional, cell-based
# CHP-126 = experiment: cells; type: functional, cell-based; details: Homo sapiens
# Description: SANGER: Inhibition of human CHP-126 cell growth in a cell viability assay.
smiles,measurement,setting,value
C/C(O)=C(\C#N)C(=O)Nc1cc(Br)ccc1Br,IC50,COR-L23,> 16 µM
same,IC50,COR-L279,> 16000 nM
same,IC50,ChaGo-K-1,> 16 µM
same,IC50,DU-145,> 16 µM
same,IC50,EFM-19,> 16000 nM
same,IC50,EFO-27,> 16 µM
same,IC50,G-401,> 16 µM
same,IC50,GCT,> 16 µM
same,IC50,GMS-10,> 16 µM
same,IC50,H4,> 16 µM
same,IC50,HCC1419,> 16000 nM
same,IC50,HCT-116,> 16 µM
same,IC50,HCT-15,> 16 µM
same,IC50,HOP-92,> 16 µM
same,IC50,HT-3,> 16 µM
same,IC50,HuO-3N1,> 16 µM
same,IC50,IMR-5,> 16 µM
same,IC50,KYSE-410,> 16 µM
same,IC50,MDA-MB-361,> 16000 nM
same,IC50,ME-180,> 16 µM
same,IC50,MEL-HO,> 16 µM
same,IC50,MHH-CALL-2,> 16 µM
same,IC50,MKN-1,> 16 µM
same,IC50,NB1,> 16 µM
same,IC50,NCI-H2052,> 16 µM
same,IC50,NCI-H2081,> 16 µM
same,IC50,NCI-H2196,> 16 µM
same,IC50,NCI-H2342,> 16000 nM
same,IC50,NCI-H28,> 16 µM
same,IC50,NCI-H292,> 16 µM
same,IC50,NCI-H524,> 16 µM
same,IC50,NCI-H716,> 16 µM
same,IC50,NCI-H810,> 16 µM
same,IC50,SNU-16,> 16 µM
same,IC50,PANC-08-13,> 16 µM
same,IC50,RO82-W-1,> 16 µM
same,IC50,RPMI 8402,> 16 µM
same,IC50,RT-112,> 16 µM
same,IC50,SCC-9,> 16 µM
same,IC50,SF-295,> 16 µM
same,IC50,SK-MEL-28,> 16 µM
same,IC50,SK-MEL3,> 16 µM
same,IC50,ST486,> 16 µM
same,IC50,SUP-T1,> 16 µM
same,IC50,SW1088,> 16 µM
same,IC50,SW48,> 16 µM
same,IC50,SW626,> 16 µM
same,IC50,SW756,> 16 µM
same,IC50,SW780,> 16 µM
same,IC50,SW837,> 16 µM
same,IC50,8505C,> 16 µM
same,IC50,A253 cell line,> 16 µM
same,IC50,BC1 cell line,> 16 µM
same,IC50,BPH-1,> 16 µM
same,IC50,CA46,> 16 µM
same,IC50,CAL-148,> 16 µM
same,IC50,CAL-27,> 16 µM
same,IC50,TE-441-T,> 16 µM
same,IC50,U2OS,> 16 µM
same,IC50,UACC-62,> 16 µM
same,IC50,UMUC3,> 16 µM
same,IC50,YKG-1,> 16000 nM
same,IC50,CESS,> 16 µM
same,IC50,CHP-126,> 16 µM
O=c1[nH]c2ccccc2n1C1CCN(Cc2ccc(-c3nc4cc5[nH]cnc5cc4nc3-c3ccccc3)cc2)CC1,IC50,COR-L23,> 2.56 µM
same,IC50,COR-L279,1680 nM
same,IC50,ChaGo-K-1,> 2.56 µM
same,IC50,DU-145,> 2.56 µM
same,IC50,EFM-19,564 nM
same,IC50,EFO-27,> 2.56 µM
same,IC50,G-401,> 2.56 µM
same,IC50,GCT,> 2.56 µM
same,IC50,GMS-10,> 2.56 µM
same,IC50,H4,> 2.56 µM
same,IC50,HCC1419,2340 nM
same,IC50,HCT-116,> 2.56 µM
same,IC50,HCT-15,> 2.56 µM
same,IC50,HOP-92,> 2.56 µM
same,IC50,HT-3,> 2.56 µM
same,IC50,HuO-3N1,> 2.56 µM
same,IC50,IMR-5,> 2.56 µM
same,IC50,KYSE-410,> 2.56 µM
same,IC50,MDA-MB-361,490 nM
same,IC50,ME-180,> 2.56 µM
same,IC50,MEL-HO,> 2.56 µM
same,IC50,MHH-CALL-2,> 2.56 µM
same,IC50,MKN-1,> 2.56 µM
same,IC50,NB1,> 2.56 µM
same,IC50,NCI-H2052,> 2.56 µM
same,IC50,NCI-H2081,> 2.56 µM
same,IC50,NCI-H2196,> 2.56 µM
same,IC50,NCI-H2342,938 nM
same,IC50,NCI-H28,> 2.56 µM
same,IC50,NCI-H292,> 2.56 µM
same,IC50,NCI-H524,> 2.56 µM
same,IC50,NCI-H716,> 2.56 µM
same,IC50,NCI-H810,> 2.56 µM
same,IC50,SNU-16,> 2.56 µM
same,IC50,PANC-08-13,> 2.56 µM
same,IC50,RO82-W-1,> 2.56 µM
same,IC50,RPMI 8402,> 2.56 µM
same,IC50,RT-112,> 2.56 µM
same,IC50,SCC-9,> 2.56 µM
same,IC50,SF-295,> 2.56 µM
same,IC50,SK-MEL-28,> 2.56 µM
same,IC50,SK-MEL3,> 2.56 µM
same,IC50,ST486,> 2.56 µM
same,IC50,SUP-T1,> 2.56 µM
same,IC50,SW1088,> 2.56 µM
same,IC50,SW48,> 2.56 µM
same,IC50,SW626,> 2.56 µM
same,IC50,SW756,> 2.56 µM
same,IC50,SW780,> 2.56 µM
same,IC50,SW837,> 2.56 µM
same,IC50,8505C,> 2.56 µM
same,IC50,A253 cell line,> 2.56 µM
same,IC50,BC1 cell line,> 2.56 µM
same,IC50,BPH-1,> 2.56 µM
same,IC50,CA46,> 2.56 µM
same,IC50,CAL-148,> 2.56 µM
same,IC50,CAL-27,> 2.56 µM
same,IC50,TE-441-T,> 2.56 µM
same,IC50,U2OS,> 2.56 µM
same,IC50,UACC-62,> 2.56 µM
same,IC50,UMUC3,> 2.56 µM
same,IC50,YKG-1,1020 nM
same,IC50,CESS,> 2.56 µM
same,IC50,CHP-126,> 2.56 µM
